Measured values taken from PMC6580715 (Clinical Medicine Insights. Endocrinology and Diabetes, 2019).
No end group written: not given here.

How the values were obtained:
1.1B4 beta-cells = assay: Beta-cell proliferation, Ki-67 staining, 1.1B4; format: cell-based, human; conditions: 1.1B4, 10^-8 and 10^-6 M, n = 3
BRIN-BD11 beta-cells [1] = assay: Beta-cell proliferation, Ki-67 staining, BRIN-BD11; format: cell-based, rodent; conditions: BRIN BD11, 10^-8 and 10^-6 M, n = 3
DPP-4 = assay: 50 mM triethanolamine/HCl; conditions: 37°C, up to 8 hours
BRIN-BD11 beta-cells [2] = assay: Protection against cytokine-induced apoptosis, TUNEL, BRIN-BD11; format: cell-based, rodent; conditions: n = 3
BRIN-BD11 beta-cells [3] = assay: In vitro insulin secretion from BRIN-BD11 beta-cells; format: cell-based, rodent; conditions: peptides 10^-12-10^-6 M, 20-minute incubation, insulin radioimmunoassay, n = 8, vs 16.7 mM glucose

fragment found (DPP-4) | Substance | beta-cell proliferation vs control cultures (1.1B4 beta-cells) | beta-cell proliferation vs control cultures (BRIN-BD11 beta-cells [1]) | cytokine-induced apoptosis vs cytokine cocktail control (BRIN-BD11 beta-cells [2]; BRIN BD11, 10^-8 M only, cytokine cocktail) | cytokine-induced apoptosis vs cytokine cocktail control (BRIN-BD11 beta-cells [2]; BRIN BD11, 10^-8 and 10^-6 M, cytokine cocktail (IL-1β, IFNγ, TNFα)) | protection against apoptosis compared with PYY(1-36) (BRIN-BD11 beta-cells [2]; BRIN BD11, same concentration, cytokine cocktail) | insulin secretion at 16.7 mM glucose (GSIS) (BRIN-BD11 beta-cells [3])
– | GLP-1: GLP-1 positive control (HAEGTFTSDVSSYLEGQAAKEFIAWLVKGR; ends and bridges not checked; UniProt P01275 98-127, looked up) [reference compound] | significantly (P < .05 to P < .001) increased | significantly (P < .05 to P < .001) increased | – | – | – | –
PYY(3-36)(Lys^12PAL), 8 h | YPIKPEAPGEDK(PAL)SPEELNRYYASLRHYLNLVTRQRY | – | – | – | – | – | –
– | YPIKPEAPGEDK(PAL)SPEELNRYYASLRHYLNLVTRQRY [PYY(1-36)(Lys^12PAL)] | significantly increased (P < .05 to P < .01) the proliferation of both beta-cell lines | – | barring PYY(1-36)(Lys^12PAL) at 10^-8 M | offered some protection against apoptosis | significantly (P < .05 to P < .01) less efficacious | had no impact on GSIS
